Test results from patent US5187169A, “Method for treatment of neurodegenerative diseases” (R. J. Reynolds Tobacco Company, priority 1992, dated 1993).

What was measured:
[1] = molecular target: high affinity nicotinic receptors; test: Inhibition of L-[3H]nicotine binding to mouse brain membrane preparations; set-up: species or system Mice (DBA strain); details: mouse brain membranes, 2 hr incubation at 4° C., 10 nM L-[3H]nicotine, Ki calculated from IC50 by the method of Cheng et al.
Procedure: Mice (DBA strain) were maintained on a 12 hour light/dark cycle and were allowed free access to water and food supplied by Wayne Lab Blox, Madison, Wis. Animals used in the present studies were 60 to 90 days of age and weighed 20 to 25 g. Brain membrane preparations were obtained from pooled brain tissue of both males and females.
Mice were killed by cervical dislocation. Brains were removed and placed on an ice-cold platform. […] Protein was determined by the method of Lowry, et al., J. Biol. Chem., Vol. 193, pp. 265-275 (1951), using bovine serum albumin as the standard.
The binding of L-[^3 H]nicotine was measured using a modification of the method of Romano, et al., Science, Vol. 210, pp. 647-650 (1980) as described previously by Marks, et al., Mol. Pharmacol., Vol. 30, pp. 427-436 (1986). The binding of L-[^3 H]nicotine was measured using a 2 hr. incubation at 4° C. […] Nonspecific binding was determined by inclusion of 10 μM nonradioactive nicotine in the incubations. The inhibition of L-[^3 H]nicotine binding by test compounds was determined by including one of eight different concentrations of the test compound in the incubation. […] Inhibition constants (Ki values) were calculated from the IC50 values using the method of Cheng, et al., Biochem. Pharmacol., Vol. 22, pp. 3099-3108 (1973). […]

[2] = test system: synaptosomes from the striatal area of rat brain; test: [3H]-dopamine release from rat striatal synaptosomes; type: cell-based, Sprague-Dawley rats; details: 0.2 ml of a 20 μM solution of ligand, relative to an equal concentration of (S)-(-)-nicotine
Procedure: Dopamine release was measured by preparing synaptosomes from the striatal area of rat brain obtained from Sprague-Dawley rats generally according to the procedures set forth by Nagy, et al., J. Neurochem., Vol. 43, pp. 1114-1123 (1984). Striata from 4 rats were homogenized in 2 ml of 0.32M sucrose buffered with 5 mM HEPES (pH 7.5), using a glass-teflon tissue grinder. The homogenate was diluted to 5 ml with additional homogenization solution and centrifuged at 1000×g for 10 min. This procedure was repeated on the new pellet and the resulting supernatant was centrifuged at 12,000×g for 20 min. […] Using this method, 30 to 90 percent of the dopamine was taken up into the synaptosomes, as determined by scintillation counting following filtration through glass fiber filters soaked with 0.5 percent polyethyleneimine. […] After the addition of a 0.2 ml of a 20 μM solution of ligand, the perfusate was collected into scintillation vials at 1 min. intervals and the dopamine released was quantified by scintillation counting. Peaks of radioactivity released above background were summed and the average basal release during that time was subtracted from the total. Release was expressed as a percentage of release obtained with an equal concentration of (S)-(-)-nicotine.

SMILES: CN1C(=O)CC[C@H]1c1cccnc1 [cotinine]
- Ki [1]: 3.9 µM
- Dopamine Release [2]: 20 Percent release relative to (S
